Here are results for 2 compounds from patent US8211901B2, “Naphthamide derivatives as multi-target protein kinase inhibitors and histone deacetylase inhibitors” (Shenzhen Chipscreen Biosciences Ltd., priority 2009, dated 2012).

One data set concerns A549. Briefly: Tumor cell proliferation (MTS), A549. The format is cell-based. The conditions noted are these: Homo sapiens, 72 hours, complete medium. Here is the method: (§1) Measurement of In Vivo Cell Proliferation:
(§2) Tumor cells were trypsinized and plated into 96-well plates at 3,000 per well and incubated in complete medium with 10% FBS for 24 hours. Compounds were added over a final concentration range of 100 μmol/L to 100 nmol/L in 0.1% DMSO and incubated for 72 hours in complete medium. The effects on proliferation were determined by addition of MTS reagent (Promega) according to the instruction, incubation for 2 hours at 37° C. in CO2 incubator, and record the absorbance at 490 nm using an ELISA plate reader.
(§3) Human Cell Lines are Listed Below:
A549: Non small cell lung carcinoma

The test system of the next data set is HCT-8. The data set is described as follows: Tumor cell proliferation (MTS), HCT-8. The class given is cell-based. The conditions noted are these: Homo sapiens, 72 hours, complete medium. Here is the method:
as §1, §2, §3
HCT-8: Ileocecal colorectal adenocarcinoma

The test system of data set [1] is total HDAC enzyme (HeLa extract). The data set is described as follows: In vitro inhibition of total HDAC enzyme activity (HDAC Fluorimetric Assay/Drug Discovery Kit). The class given is biochemical. Here is the method:
Measurement of In Vitro Inhibition of Total HDAC Enzyme Activity:
The in vitro inhibition of total HDAC enzyme was determined by HDAC Fluorimetric Assay/Drug Discovery Kit (BIOMOL) according to manufacture's instruction. • 1. Add Assay buffer, diluted trichostatin A or test inhibitor to appropriate wells of the microtiter plate. Following table lists examples of various assay types and the additions required for each test.
• 2. Add diluted HeLa extract or other HDAC sample to all wells except those that are to be “No Enzyme Controls” (Blank). • 3. Allow diluted Fluor de Lys™ Substrate and the samples in the microtiter plate to equilibrate to assay temperature (25° C.). • 4. Initiate HDAC reactions by adding diluted substrate (25 μl) to each well and mixing thoroughly. • 5. Allow HDAC reactions to proceed for desired length of time and then stop them by addition of Fluor de Lys™ Developer (50 μl). Incubate plate at room temperature (25° C.) for 10-15 min. • 6. Read samples in a microtiter-plate reading fluorimeter capable of excitation at a wavelength in the range 350-380 nm and detection of emitted light in the range 440-460 nm. Measurement of In Vivo Inhibition of HDAC Subtype Activity: […]

A further data set has as its system Bel-7402. Briefly: Tumor cell proliferation (MTS), Bel-7402. The class given is cell-based. The conditions noted are these: Homo sapiens, 72 hours, complete medium. As to the method: as §1, §2, §3
Bel-7402: Hepatocellular carcinoma

In the next data set the test system is HUVEC cells. The data set is described as follows: VEGF dependent cell proliferation (MTS). The conditions noted are these: Homo sapiens, VEGF 165 50 ng/ml, 72 hours, serum-free medium, read-out: GI50 nM (VEGF ligand-dependent cell proliferation). The class given is cell-based. As to the method:
VEGF Dependent Cell Proliferation:
HUVEC cells were plated into 96-well plates at 6,000 per well and incubated with serum-free medium for 2 hours. Compounds and VEGF 165 (50 ng/ml) were added and incubated for 72 hours in serum-free medium. The effects on proliferation were determined by addition of MTS reagent (Promega) according to the instruction, incubation for 2 hours at 37° C. in CO2 incubator, and record the absorbance at 490 nm using an ELISA plate reader.

Another data set addresses T1, human PDGFRβ (Homo sapiens, UniProt P09619).
T1 construct: expressed in transfected cells
Briefly: PDGF dependent cell proliferation (MTS). The class given is cell-based. The conditions noted are these: PDGFRβ NIH-3T3 cells, PDGF BB 50 ng/ml, 72 hours, serum-free medium; read-out: GI50 nM (PDGF ligand-dependent cell proliferation). Here is the method:
PDGF Dependent Cell Proliferation:
NIH-3T3 mouse fibroblasts cell line engineered to stably express human PDGFIRβ was constructed and used to evaluate PDGF dependent cell proliferation. PDGFRβ NIH-3T3 cells were plated into 96-well plates at 5,000 per well and incubated with serum-free medium for 24 hours. Compounds and PDGF BB (50 ng/ml) were added and incubated for 72 hours in serum-free medium. The effects on proliferation were determined by addition of MTS reagent (Promega) according to the instruction, incubation for 2 hours at 37° C. in CO2 incubator, and record the absorbance at 490 nm using an ELISA plate reader.

Another data set deals with Class I HDAC. Briefly: P21 reporter gene assay in HeLa cells. The class given is cell-based. The conditions noted are these: 24 hours. As to the method:
HDAC subtype selectivity inhibition assay of tested compounds was carried out by several reporter gene assays experiments. Briefly, HeLa cells were seeded in 96-well plates the day before transfection to give a confluence of 50-80%. Cells were transfected with one of reporter gene plasmid containing a promoter sequence or response element upstream of a luciferase gene construct using FuGene6 transfection reagent according to the manufacturer's instruction (Roche). The promoters or response elements including p21-promoter was fused upstream to the luciferase gene reporter construct. For normalizing the transfection efficiency, a GFP expression plasmid was cotransfected. Cells were allowed to express protein for 24 hours followed by addition of individual compounds or the vehicle (DMSO). 24 hours later the cells were harvested, and the luciferase assay and GFP assay were performed using corresponding assay kits according to the manufacturer's instructions (Promega).
(A reporter such as luciferase makes a cellular process visible.)

The test system of a further data set is A-498. Briefly: Tumor cell proliferation (MTS), A-498. The conditions noted are these: Homo sapiens, A498; 72 hours, complete medium. The class given is cell-based. Here is the method:
as §1, §2

The test system of the next data set is MCF-7. The data set is described as follows: Tumor cell proliferation (MTS), MCF-7. The format is cell-based. The conditions noted are these: Homo sapiens, MCF7; 72 hours, complete medium. As to the method: as §1, §2, §3
MCF-7: Mammary gland adenocarcinoma

Data set [2] is described as follows: Body weight in HCT-8 xenograft study (Example 54). The class given is in vivo, nu/nu mice. As to the method: The antitumor activity of compound 33 and compound 34 were measured in human HCT-8 colon cancer xenograft model. The female nu/nu mice of 18˜20 g were fed by normal diet for 3 days. Then the cultured HCT-8 human colon cancer cells were implanted into the armpit of 50 mice. When tumors had reached approximately 100 mm^3, the mice were divided into 6 groups randomly. Each group has 8 mice. One group was treated with vehicle. One group was treated with sutent, the positive control drug. Two groups were treated with compound 33. The other two groups were treated with compound 34. Each group was dosed orally once a day for 20 days. Tumor volumes as established by caliper measurements were recorded twice per week, along with body weights. At the end of study, the mice were killed, and tumors were weighed. The tumor growth inhibition of each group was calculated using the formula {[(the average tumor weight of vehicle group)−(the average tumor weight of drug group)]/(the average tumor weight of vehicle group)}×100%.

[3] abbreviates: 30 mg/kg orally once a day for 20 days.
The mark [4] stands for this setting: 60 mg/kg orally once a day for 20 days.

T1 sequence (P09619 33-1106): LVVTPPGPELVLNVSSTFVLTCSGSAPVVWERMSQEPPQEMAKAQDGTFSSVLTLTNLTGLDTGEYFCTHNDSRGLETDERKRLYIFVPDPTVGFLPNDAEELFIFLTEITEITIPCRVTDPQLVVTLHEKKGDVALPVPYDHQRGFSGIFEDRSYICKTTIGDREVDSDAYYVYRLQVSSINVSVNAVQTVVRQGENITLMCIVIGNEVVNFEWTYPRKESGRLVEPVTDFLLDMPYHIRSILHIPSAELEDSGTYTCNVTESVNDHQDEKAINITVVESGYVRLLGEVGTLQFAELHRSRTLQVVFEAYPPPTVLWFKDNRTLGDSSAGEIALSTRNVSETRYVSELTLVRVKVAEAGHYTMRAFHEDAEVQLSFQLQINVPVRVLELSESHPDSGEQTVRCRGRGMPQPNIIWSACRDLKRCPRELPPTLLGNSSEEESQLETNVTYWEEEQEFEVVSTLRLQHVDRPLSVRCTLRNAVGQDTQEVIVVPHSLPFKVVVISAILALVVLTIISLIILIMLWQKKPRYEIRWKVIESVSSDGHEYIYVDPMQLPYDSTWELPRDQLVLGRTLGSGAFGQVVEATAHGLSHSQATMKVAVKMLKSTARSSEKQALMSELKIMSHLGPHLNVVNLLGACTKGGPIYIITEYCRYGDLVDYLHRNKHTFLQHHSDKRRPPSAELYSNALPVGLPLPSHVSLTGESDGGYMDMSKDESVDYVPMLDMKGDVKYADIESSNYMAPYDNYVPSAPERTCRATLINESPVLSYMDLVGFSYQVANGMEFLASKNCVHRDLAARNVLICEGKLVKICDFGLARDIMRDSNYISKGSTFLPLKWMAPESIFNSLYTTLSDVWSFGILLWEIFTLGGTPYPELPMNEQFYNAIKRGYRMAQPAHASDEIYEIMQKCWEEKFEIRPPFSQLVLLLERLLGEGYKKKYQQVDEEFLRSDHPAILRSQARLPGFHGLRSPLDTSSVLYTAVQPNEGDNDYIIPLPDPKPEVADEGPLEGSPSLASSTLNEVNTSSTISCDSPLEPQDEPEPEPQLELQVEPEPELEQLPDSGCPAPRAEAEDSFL

On to `COc1ccc2c(Oc3ccc4c(C(=O)Nc5ccccc5N)cccc4c3)ccnc2c1` [Example 31, N-(2-aminophenyl)-6-(7-methoxyquinolin-4-yloxy)-1-naphthamide], for which the GI50 in the data set on A549 is 17.3 µM; in the data set with HCT-8 it was 6.6 µM; in the data set with Bel-7402 it was 30 µM; in the data set on HUVEC cells it was 5 nM; at human PDGFRβ, 46 nM; in the data set on A-498, 9.5 µM. In the data set on MCF-7, the GI50 worked out at 10.2 µM. Besides, in [1], the “% inhibition of total HDAC enzyme activity at 30 μM” value came out at 10.1%. In the data set with Class I HDAC, the “Class I HDAC (P21 reporter assay) Fold Induction at 10 μM” value is reported as 1.6 Fold.
For the compound `COc1ccc2c(Oc3ccc4c(C(=O)NCc5ccc(C(=O)Nc6ccccc6N)cc5)cccc4c3)ccnc2c1` [Example 33, N-(4-((2-aminophenyl)carbamoyl)benzyl)-6-(7-methoxyquinolin-4-yloxy)-1-naphthamide], the GI50 is 2.1 µM in the data set on A549; 1.5 µM in the data set with HCT-8; 2.8 µM with Bel-7402; 8 nM in the data set with HUVEC cells; 300 nM at human PDGFRβ; 1.9 µM in the data set with A-498. Besides, the GI50 in the data set with MCF-7 was determined as 2 µM. Also, the entries for the “Body weight (g) end” value in data set [2] (setting [3]) and in data set [2] (setting [4]) were 21.1 ± 2.2 g and 21.4 ± 1.5 g, respectively. The “Body weight (g) start” value in data set [2] (setting [3]) is given as 19.0 ± 1.3 g; in [2] (setting [4]), 19.4 ± 0.8 g. The “% inhibition of total HDAC enzyme activity at 30 μM” value in data set [1] worked out at 39.1%. In addition, the “Class I HDAC (P21 reporter assay) Fold Induction at 10 μM” value in the data set with Class I HDAC was determined as 2.8 Fold.
